Columns and labels:
Type in all cases: in vivo, human
[1] = test system: osteoarthritis of the knee; experiment: Second Phase 2 study: Subject's Global Assessment of Disease Status (SGADS)
Description: (§1) 4.9.2. Secondary Efficacy Endpoints: • 1. Change from Baseline in the WOMAC (VAS) pain subscale score for the target knee at 2, 8, and 12 weeks of treatment; • 2. Change from Baseline in the WOMAC (VAS) stiffness subscale scores for the target knee and WOMAC (VAS) functional ability subscale scores at 2, 4, 8, and 12 weeks of treatment; • 3. Change from Baseline in the overall WOMAC (VAS) score at 2, 4, 8, and 12 weeks of treatment; • 4. Subject's global assessment of disease status of the target knee at 2, 4, 8, and 12 weeks of treatment; • 5. Subject's global assessment of response to therapy of the target knee at 2, 4, 8, and 12 weeks of treatment; • 6. Amount of rescue medication (acetaminophen) consumed per day for target knee pain.

[2] = test system: osteoarthritis of the knee; experiment: Second Phase 2 study: Investigator's assessment of response to therapy (IART); settings: Week 12
Description: 4.9.3. Exploratory Efficacy Endpoints: • 1. Investigator's global assessment of response to therapy of the target knee at 2, 4, 8, and 12 weeks of treatment; • 2. Change from Baseline over time in overall WOMAC (VAS) score for the target knee after the treatment is stopped for 2 weeks.

[3] = test system: osteoarthritis of the knee; experiment: Second Phase 2 study: WOMAC (VAS) pain subscale score
Description: This is a Phase 2, multicenter, randomized, double blind (within dose), Ibuprofen-placebo controlled, parallel group, dose range finding study to evaluate the efficacy, safety, and PK of 2-(diethylamino)ethyl 2-(4-isobutylphenyl)propionate spray in adult subjects with clinically symptomatic OA of the knee. For subjects with bilateral knee pain, both knees will be treated, but the most symptomatic knee (ie, the most painful knee as measured by the Western Ontario and McMaster University Osteoarthritis Index [WOMAC® 3.1] pain subscale score at Screening) will be designated as the target knee for efficacy analyses. For subjects with unilateral knee pain, only the symptomatic (target) knee will be treated.
The VAS version of the WOMAC will be used for the Primary and Secondary Efficacy Endpoints. Efficacy endpoints will be assessed at Screening and Baseline (Day 1) and at the Week 2, Week 4, Week 8, and Week 12/EOS visits.
The Primary Efficacy Endpoint is the change from Baseline in the WOMAC (VAS) pain subscale score for the target knee at […] of treatment.
as §1
The Primary Efficacy Endpoint is change from Baseline in the WOMAC (VAS) pain subscale score for the target knee at 4 weeks of treatment, and will be analyzed using an analysis of covariance (ANCOVA). Treatment will be included as a fixed class effect and WOMAC Baseline pain subscale score as covariates. The primary comparisons of interest will be the difference between active Group A (4.375 mg 2-(diethylamino)ethyl 2-(4-isobutylphenyl)propionate/knee) and combined placebo, active Group B (8.75 mg 2-(diethylamino)ethyl 2-(4-isobutylphenyl)propionate/knee) and combined placebo, and active Group C (17.5 mg 2-(diethylamino)ethyl 2-(4-isobutylphenyl)propionate/knee) and combined placebo.

[4] = test system: osteoarthritis of the knee; experiment: Second Phase 2 study: Subject Global Impression of Change (SGIC); settings: Week 12
Description: as §1

[5] = Baseline, oral, 3 × 400 mg (n = 20), first 130 subjects
[6] = Week 12, oral, 3 × 400 mg (n = 20), first 130 subjects
[7] = all subjects, Oral Ibuprofen 3 × 400 mg, n = 48, Week 12
[8] = all subjects, Oral Ibuprofen 3 × 400 mg, n = 48 vs. Placebo n = 48
[9] = oral 3×400 mg, first 130 subjects
[10] = oral, 3 x 400 mg (n = 20), first 130 subjects
[11] = all subjects, Oral Ibuprofen 3 × 400 mg, n = 48

CC(C)Cc1ccc(C(C)C(=O)O)cc1 (stereo not shown) [Ibuprofen, 2-(4-isobutylphenyl)propionic acid, reference compound]
Subject’s Global Assessment of Disease Status Scores, Baseline (LS Mean) [1, 5]: 75.2 mm
Subject’s Global Assessment of Disease Status Scores, % of improvement from baseline [1, 6]: −38.4%
Subject’s Global Assessment of Disease Status Scores, % of improvement from placebo [1, 6]: −2.0%
Subject’s Global Assessment of Disease Status Scores, Changes from Baseline (LS Mean) [1, 6]: −28.9 mm
Subject’s Global Assessment of Disease Status Scores, Different from placebo (LS Mean) [1, 6]: −4.4 mm
Subject’s Global Assessment of Disease Status Scores, Week 12 (LS Mean) [1, 6]: 46.3 mm
Subject's Global Assessment of Disease Status Scores, % of improvement from Placebo [1, 7]: −0.7%
Subject's Global Assessment of Disease Status Scores, % of improvement from baseline [1, 7]: −46.6%
Subject's Global Assessment of Disease Status Scores, Changes from Baseline (LS Mean) [1, 7]: −33.3 mm
Subject's Global Assessment of Disease Status Scores, Week 12 (LS Mean) [1, 7]: 38.1 mm
SGADS, difference vs. Placebo [1, 8]: −2.9 mm
SGADS, difference from placebo [1, 9]: −4.2 mm
IART: Good and Very good [2, 10]: 50.0%
IART: Poor and Very Poor [2, 10]: 25.0%
IART: fair [2, 10]: 25.0%
IART, Good and Very good [2, 11]: 47.9%
IART, Poor and Very Poor [2, 11]: 8.3%
IART, fair [2, 11]: 43.8%
WOMAC Pain Subscale Scores, Baseline (LS Mean) [3, 5]: 67.0 mm
WOMAC Pain Subscale Scores, % of improvement from Placebo [3, 6]: 0.9%
WOMAC Pain Subscale Scores, % of improvement from baseline [3, 6]: −32.2%
WOMAC Pain Subscale Scores, Changes from Baseline (LS Mean) [3, 6]: −21.6 mm
WOMAC Pain Subscale Scores, Different from placebo (LS Mean) [3, 6]: −0.5 mm
WOMAC Pain Subscale Scores, Week 12 (LS Mean) [3, 6]: 45.4 mm
WOMAC Pain Subscale Scores, % of improvement from Placebo [3, 7]: −4.5%
WOMAC Pain Subscale Scores, % of improvement from baseline [3, 7]: −41.2%
WOMAC Pain Subscale Scores, Changes from Baseline (LS Mean) [3, 7]: −25.4 mm
WOMAC Pain Subscale Scores, Week 12 (LS Mean) [3, 7]: 36.3 mm
WOMAC Pain, difference vs. Placebo [3, 8]: −2.8 mm
WOMAC pain, difference from placebo [3, 9]: −0.5 mm
SGIC: Good and Very good [4, 10]: 55.0%
SGIC: Poor and Very Poor [4, 10]: 10.0%
SGIC: fair [4, 10]: 35.0%
SGIC, Good and Very good [4, 11]: 47.9%
SGIC, Poor and Very Poor [4, 11]: 8.3%
SGIC, fair [4, 11]: 43.8%
Subject's satisfaction rate (SGIC good and very good) ([4]; oral 3×400 mg/day, first 130 subjects): 55%

From patent US20240024273A1, “TOPICAL ADMINISTRATION OF 2-(DIETHYLAMINO)ETHYL 2-(4-ISOBUTYLPHENYL)PROPRIONATE FOR TREATMENT OF DISEASES” (TECHFIELDS PHARMA CO., LTD., priority 2020, published 2024)
